Experimental data reported in patent US20260283149A1, “DEVELOPMENT AND APPLICATION OF SYNTHETIC INHIBITORS OF PHOTOSYNTHESIS” (University of Florida Research Foundation, Incorporated, priority 2023, published 2026).

Tests used:
[1] = tested on: Synechocystis sp. PCC6803 cells; assay: Growth inhibition of Synechocystis sp. PCC 6803 in liquid BG-11 medium; assay type: cell-based; settings: for inhibitory activity on growth of Synechocystis sp. PCC6803 cells (overall grade): tested at 10 and 25 microM; for growth inhibition of Synechocystis sp. PCC6803 cells: liquid BG-11 medium with glucose, growth monitored at 700 nm
Method: (§1) FIG. 11. Growth inhibition of Arabidopsis and Synechocystis by duroquinone, the unprenylated structural analogue of methyl-plastoquinone-9. (A) Structure of duroquinone. (B) Seven-day-old Arabidopsis plants (Col-0) grown on MS medium containing 1% sucrose (w/v) and 0, 10, 25, 50, or 100 μM duroquinone in 12-hour days (110 μE m^−2 s^−1) at 22° C. (C) Growth curve of Synechocystis sp. PCC 6803 at 30° C. in liquid BG-11 medium containing glucose, and with or without duroquinone. Data are means of three biological replicates±SE. Asterisks indicate significant differences (0 μM vs. 10 μM duroquinone) as determined by Fisher's test (p<α=0.05) from an analysis of variance.
FIG. 13. Growth inhibition of Synechocystis sp. PCC 6803 by structural analogues of methyl-plastoquinone-9. Synechocystis sp. PCC6803 cells were grown in liquid BG-11 medium containing […] (80 μE m^−2 s^−1; 24-hour days; 30° C.). Cell growth was monitored spectrophotometrically at 700 nm.
FIG. 15. Growth curve of Synechocystis treated with analogues grown photomixotrophically and photoautotrophically. Wild-type Synechocystis was grown in BG-11 and either with 5 mM glucose for photomixotrophic or w/o for photoautotrophic with treatment of either 0, 10 or 25 μM of the corresponding methylplastoquinone analog w/ 0.095% EtOH final and grown at a continuous light intensity of 50μ photons m^−2s^−1 at 30° C. with shaking 125 rpm. Data are means of 2 biological replicates ±SD.
Several analogues of Methylplastoquinone (FIG. 14) were tested for their ability to act as herbicides. Synechocystis were grown photomixotrophically (BG-11 plus 5 mM glucose) and photoautotrophically (BG-11 without glucose) at a continuous light intensity of 50μ photons m^−2s^−1 at 30° C. with shaking 125 rpm. The cultures were further treated with 0, 10, or 25 μM Doruquinone (DQ), 2,6-dimethly-1,4-benzoquinone (DMBQ), 2,6-dimethoxy-1,4-benzoquinone (DMOBQ), 2,6-dichloro-1,4-benzoquinone (DCBQ), or 2-chloro-1,4-benzoquinone (CBQ), each with […] ethanol.

Arabidopsis [2] = assay: Accumulation of methyl-plastoquinone-9 in dexamethasone-induced plastid-targeted COQ5 Arabidopsis transgenics; assay type: in vivo, Arabidopsis thaliana; settings: transgenics are seedling lethal
Synechocystis = assay: Accumulation of methyl-plastoquinone-9 in COQ5-expressing Synechocystis DPhQ-MT knockout cells; assay type: cell-based, Synechocystis sp. PCC 6803; settings: especially when cultured photoautotrophically; clones evolve suppressor mutations in COQ5
Text: For expression in Synechocystis, gene sll1653 and N-terminally truncated versions of At5g57300 (S23→M23) and At1g23360 (V28→M28) cDNAs were PCR amplified using primers that contained the NdeI(5′) and BglII(3′) restriction sites. PCR fragments were cloned into NdeI/BglII-digested pSynExp-2 expression vector (Sattler S E et al. “Characterization of tocopherol cyclases from higher plants and cyanobacteria. Evolutionary implications for tocopherol synthesis and function.” Plant Physiol. 132, 2184-2195 (2003)), and the resulting constructs were introduced into Synechocystis Δsll1653::aadA knockout cells (Lohmann A et al. 2006). Transformed cells were selected on BG-11 plates containing and chloramphenicol ([…]), and spectinomycin (15 μg/ml) at 22° C. in 12-hour days (70 μE m^−2s^−1). […] Induction and analyses of chlorophyll fluorescence were performed on one month-old dark-adapted plants using a FluorCam 800 MF imaging system (Photon Systems Instruments).
To further investigate why clade 2 C-methyltransferases evolved strict substrate preference, the effect of replacing cognate cyanobacterial and plastid-targeted DPhQ-MT with a bifunctional COQ5 counterpart was examined. […] These constructs were then introduced into a Synechocystis DPhQ-MT knockout strain and the growth of individual clones was scored via serial dilution assays (FIG. 3 A-B).

Arabidopsis [3] = assay: Growth of Arabidopsis plants on MS medium containing the compound; assay type: in vivo, Arabidopsis thaliana (Col-0); settings: 1% sucrose, 10-100 μM, applied at 2 to 50 times lower concentrations than standard herbicides such as DCMU or glyphosate
Method: as §1
Ten day-old Arabidopsis plants (Col-0) were grown on MS medium containing 1% sucrose (w/v), 0.095% EtOH, and 0, 10, 25, 50 or 100 μM methyl-plastoquinone analogues in 12-h days (photon flux of 110 μmol m^−2s^−1) at 22° C.

| Structure (SMILES) | inhibitory activity on growth of Synechocystis sp. PCC6803 cells (overall grade) [1] | growth inhibition of Synechocystis sp. PCC6803 cells ([1]; 10 microM) | growth inhibition of Synechocystis sp. PCC6803 cells ([1]; 25 microM) | also measured |
| --- | --- | --- | --- | --- |
| COC1=CC(=O)C=C(OC)C1=O [2,6-dimethoxy-1,4-benzoquinone] | low to marginal inhibitory activity |  |  |  |
| CC(C)=CCCC(C)=CCCC(C)=CCCC(C)=CCCC(C)=CCCC(C)=CCCC(C)=CCCC(C)=CCC/C(C)=C/CC1=C(C)C(=O)C(C)=C(C)C1=O [methyl-plastoquinone-9] |  |  |  | toxicity of accumulation in Arabidopsis COQ5 transgenics (Arabidopsis [2]): acutely toxic; toxicity of accumulation in Synechocystis COQ5 transformants (Synechocystis): acutely toxic |
| O=C1C=CC(=O)C(Cl)=C1 [2-chloro-1,4-benzoquinone] | as effective as duroquinone | complete growth inhibition | complete growth inhibition |  |
| CC1=C(C)C(=O)C(C)=C(C)C1=O [duroquinone] |  | complete growth inhibition | complete growth inhibition | toxicity in Arabidopsis (Arabidopsis [3]): marked toxicity |
| CC1=CC(=O)C=C(C)C1=O [2,6-dimethyl-1,4-benzoquinone] | intermediate inhibitory activity |  | complete growth inhibition |  |
| O=C1C=C(Cl)C(=O)C(Cl)=C1 [2,6-dichloro-1,4-benzoquinone] | low to marginal inhibitory activity |  |  |  |
